These results are taken from patent US20250025438A1, “Derivative of aspartic acid and use thereof in treatment of metabolic diseases such as hepatic fibrosis and non-alcoholic hepatitis” (SHENZHEN JINGTAI TECHNOLOGY CO., LTD., priority 2021, published 2025).

Type in all cases: cell-based
In one test the test system is COL1A2. Put plainly: In vitro efficacy in semi-activated LX2 cells, qPCR: COL1A2. Particulars: Homo sapiens, LX-2, 48 hours, Q-PCR, read-out: COL1A2 mRNA inhibition rate. The procedure:
Test compounds were added to the LX-2 cells respectively, and total RNA in the cells was extracted 48 hours later. This experiment was performed strictly in accordance with the instructions of the Total RNA Kit. The steps were as follows (note: this experiment was performed on ice throughout the entire process, and special RNase-free tips were used throughout the entire process): • 1) The 12-well cell culture plate was taken out from the incubator, the cell culture medium was discarded, the cells were washed twice with 1 mL of 1×PBS, and a negative pressure suction device was used to fully remove PBS; • 2) 350 μL of TRK Lysis Buffer mixture/well was prepared as needed (mixture preparation method: 1 mL of TRKLysis Buffer+20 μL of β-mercaptoethanol), vortexed and mixed well. 350 μL was added to each well of the 12-well cell culture plate, and allowed to stand at room temperature for 5 minutes to fully lyse the cells; • 3) 70% ethanol/well was prepared as needed, vortexed and mixed well. 350 μL was added to each well of the 12-well cell culture plate, mixed well by shaking, and transferred to the spin column (spin column+collection tube were assembled); • 4) Centrifugation was performed at 4° C., 12000 g for 60 sec. The waste liquid was discarded after centrifugation, while the spin column was kept; • 5) 500 μL of RNA Wash Buffer I was added, centrifuged at 4° C., 12000 g for 60 sec, the waste liquid was discarded after centrifugation, and the collection column was kept; • 6) 500 μL of RNA Wash Buffer II (confirmed that ethanol had been added) was added, centrifuged at 4° C., 12000 g for 60 sec, the waste liquid was discarded after centrifugation, and the collection column was kept; • 7) step 6) was repeated once again, centrifugation was performed at 4° C., 12000 g for 90 sec, the waste liquid was discarded after centrifugation, and the collection column was kept; • 8) Centrifugation was performed at 4° C., 12000 g for 120 sec to ensure that the spin column was fully dried; • 9) The dried spin column was inserted into a new 1.5 mL EP tube, and 30 μL of DEPC water was added to the membrane in the center of the spin column. It should be careful not to touch the EP tube cover in this step. It was allowed to stand at room temperature for 5 minutes to ensure that the RNA was fully dissolved in DEPC water. Centrifugation was performed at 4° C., 12000 g for 60 sec, and the EP tube was kept; • 10) NanoDrop ultra-micro-volume spectrophotometer was used to detect RNA concentration;
5.2 Reverse transcription of RNA into cDNA: According to the instructions of PrimeScript™ RT reagent Kit (Perfect Real Time), the specific experimental steps were as follows:
5.3 Q-PCR detection of target gene expression: According to the instructions of Power SYBR® Green PCR Master Mix, the specific operations were as follows:
After the reaction was completed, the amplification curve and dissolution curve of Q-PCR were confirmed, and the relative quantification method ([…]) was used to perform data analysis on the experimental results.
LX2 cells were passaged and plated normally. After adherent growth for 12 hours, 50 µM of the test compound was added. After 48 hours, the cells were collected, total RNA was extracted, and Q-PCR was used to detect the changes in the mRNA expression levels of liver fibrosis-related genes (ACTA2 encoding α-SMA, COL1A1 and COLIA2 encoding collagen I, COL3A1 encoding collagen III, SMAD3 encoding Smad3) and inflammation-related genes (IL1β encoding IL-1β, TNFα encoding TNFα) (for specific methods, see 5. Q-PCR detection of target gene expression as described above). α-SMA was a marker of hepatic stellate cell activation, and collagen I and collagen III were the main components of extracellular matrix deposition.
On the technique in general: In qPCR the cycle at which signal appears reflects the starting amount.

In another test the test system is collagen 3. Put plainly: In-vitro liver fibrosis model in activated LX2 cells (TGFβ1), qPCR: collagen 3. Particulars: LX-2 cells activated with TGFβ1 (5 ng/mL), 25 μM compound, 24 hours, real-time PCR. The procedure: (§1) This experiment was performed strictly in accordance with the instructions of the Total RNA Kit. The steps were as follows (note: this experiment was performed on ice throughout the entire process, and special RNase-free tips were used throughout the entire process): • 1) The 12-well cell culture plate was taken out from the incubator, the cell culture medium was discarded, the cells were washed twice with 1 mL of 1×PBS, and a negative pressure suction device was used to fully remove PBS; • 2) 350 μL of TRK Lysis Buffer mixture/well was prepared as needed (mixture preparation method: 1 mL of TRKLysis Buffer+20 μL of β-mercaptoethanol), vortexed and mixed well. 350 μL was added to each well of the 12-well cell culture plate, and allowed to stand at room temperature for 5 minutes to fully lyse the cells; • 3) 70% ethanol/well was prepared as needed, vortexed and mixed well. 350 μL was added to each well of the 12-well cell culture plate, mixed well by shaking, and transferred to the spin column (spin column+collection tube were assembled); • 4) Centrifugation was performed at 4° C., 12000 g for 60 sec. […]

The subject of a further test is α-SMA. Put plainly: In-vitro liver fibrosis model in activated LX2 cells (TGFβ1), qPCR: α-SMA. Particulars: LX-2 cells activated with TGFβ1 (5 ng/mL), 25 μM compound, 24 hours, real-time PCR. The procedure: as §1
A further test deals with FN. Kind of test: Semi-activated LX2 cells, Western blot: FN protein. The note with it: 50-400 μM, 48 hours, FIG. 3, vs 50 μM aspartic acid.

The structures appear in SMILES notation. Structures can show the parent of a compound that is named as a salt.

One may read the inhibition as how much of the control response was suppressed.

For the compound `COC(=O)C[C@H](N)C(=O)O` [Compound 6], in the test on COL1A2, the inhibition at 50 µM was in the range of 1 to 10%. The “collagen 3 gene expression inhibition rate” value in the test on collagen 3 is on record as “A (A represented that the inhibition rate was 25% or above)”. Moreover, the “α-SMA gene expression inhibition rate” value with α-SMA is “A (A represented that the inhibition rate was 25% or above)”.

As for `COC(=O)[C@@H](N)CC(=O)O` [Compound 4], in the test with COL1A2, the inhibition at 50 µM is 1 to 10%. Besides, the “collagen 3 gene expression inhibition rate” value in the test on collagen 3 is “A (A represented that the inhibition rate was 25% or above)”. The “α-SMA gene expression inhibition rate” value in the test on α-SMA is listed as “B (B represented that the inhibition rate was 10% to 25%)”.

In the case of `COC(=O)C[C@H](N)C(=O)OCOC(=O)[C@@H](N)CC(=O)OC` [Compound 54, 4-dimethyl O′1,01-methylene (2S,2'S)-bis (2-aminosuccinate) hydrochloride], in the test on FN, the “inhibitory effect on FN protein expression as compared to ASP” value is recorded as “stronger inhibitory effects”.
